Source: the kinase profiling compilation of Christmann-Franck et al. (2016)

How the values were obtained:
Assay in all cases: KINOMEscan competition binding
Conditions in all cases: compound 10.0 µM
RIOK1 (human) = RIOK1 (human) (UniProt Q9BRS2)
AURKA (human) = AURKA (human) (UniProt O14965)
MAP2K6 (human) = MAP2K6 (human) (UniProt P52564)
CDK2 (human) = CDK2 (human) (UniProt P24941)
MAP3K12 (human) = MAP3K12 (human) (UniProt Q12852)
MAPK6 (human) = MAPK6 (human) (UniProt Q16659)
YES1 (human) = YES1 (human) (UniProt P07947)
Chain of YES1 (human) (P07947 whole entry, looked up): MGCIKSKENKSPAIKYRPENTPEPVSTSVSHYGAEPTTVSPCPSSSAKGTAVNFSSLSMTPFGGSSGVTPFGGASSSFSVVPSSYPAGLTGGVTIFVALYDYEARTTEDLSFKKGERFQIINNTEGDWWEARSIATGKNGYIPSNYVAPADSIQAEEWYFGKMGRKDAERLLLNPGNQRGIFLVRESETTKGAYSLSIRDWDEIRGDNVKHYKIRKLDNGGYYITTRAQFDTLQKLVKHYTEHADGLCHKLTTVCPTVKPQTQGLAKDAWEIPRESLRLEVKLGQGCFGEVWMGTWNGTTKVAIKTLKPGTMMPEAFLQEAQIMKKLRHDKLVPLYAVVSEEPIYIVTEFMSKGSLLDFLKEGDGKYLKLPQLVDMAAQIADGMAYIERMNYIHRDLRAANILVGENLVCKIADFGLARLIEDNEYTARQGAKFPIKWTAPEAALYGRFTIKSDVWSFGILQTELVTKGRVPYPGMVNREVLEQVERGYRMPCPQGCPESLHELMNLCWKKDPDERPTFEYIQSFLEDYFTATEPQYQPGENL

CIT (human) = CIT (human) (UniProt O14578)
PHKG2 (human) = PHKG2 (human) (UniProt P15735)
RPS6KA6 KD1 (human) = RPS6KA6 KD1 (human) (UniProt Q9UK32)
ACVRL1 (human) = ACVRL1 (human) (UniProt P37023)
[1] = test system: ABL1 (human), P00519 [H396P]
EIF2AK2 (human) = EIF2AK2 (human) (UniProt P19525)
Chain of EIF2AK2 (human) (P19525 whole entry, looked up): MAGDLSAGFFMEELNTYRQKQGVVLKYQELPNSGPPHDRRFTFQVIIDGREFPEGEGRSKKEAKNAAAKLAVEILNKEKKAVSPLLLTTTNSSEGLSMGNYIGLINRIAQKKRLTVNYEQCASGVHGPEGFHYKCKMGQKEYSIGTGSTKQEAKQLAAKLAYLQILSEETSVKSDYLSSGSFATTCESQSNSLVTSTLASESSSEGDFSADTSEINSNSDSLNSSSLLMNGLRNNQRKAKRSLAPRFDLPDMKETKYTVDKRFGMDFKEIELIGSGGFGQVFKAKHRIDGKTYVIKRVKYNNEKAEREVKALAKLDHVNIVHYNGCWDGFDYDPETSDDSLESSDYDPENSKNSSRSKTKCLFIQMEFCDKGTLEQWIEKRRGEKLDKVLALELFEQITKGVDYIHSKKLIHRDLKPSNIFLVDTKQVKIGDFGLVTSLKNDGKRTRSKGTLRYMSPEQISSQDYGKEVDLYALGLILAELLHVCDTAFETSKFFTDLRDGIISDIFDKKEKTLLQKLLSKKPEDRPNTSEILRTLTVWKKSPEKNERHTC

MKNK1 (human) = MKNK1 (human) (UniProt Q9BUB5)
[2] = molecular target: TYK2 JH1 catalytic (human) (UniProt P29597)
RPS6KA4 KD2 (human) = RPS6KA4 KD2 (human) (UniProt O75676)
RPS6KA2 KD2 (human) = RPS6KA2 KD2 (human) (UniProt Q15349)
Chain of RPS6KA2 KD2 (human) (Q15349 whole entry, looked up): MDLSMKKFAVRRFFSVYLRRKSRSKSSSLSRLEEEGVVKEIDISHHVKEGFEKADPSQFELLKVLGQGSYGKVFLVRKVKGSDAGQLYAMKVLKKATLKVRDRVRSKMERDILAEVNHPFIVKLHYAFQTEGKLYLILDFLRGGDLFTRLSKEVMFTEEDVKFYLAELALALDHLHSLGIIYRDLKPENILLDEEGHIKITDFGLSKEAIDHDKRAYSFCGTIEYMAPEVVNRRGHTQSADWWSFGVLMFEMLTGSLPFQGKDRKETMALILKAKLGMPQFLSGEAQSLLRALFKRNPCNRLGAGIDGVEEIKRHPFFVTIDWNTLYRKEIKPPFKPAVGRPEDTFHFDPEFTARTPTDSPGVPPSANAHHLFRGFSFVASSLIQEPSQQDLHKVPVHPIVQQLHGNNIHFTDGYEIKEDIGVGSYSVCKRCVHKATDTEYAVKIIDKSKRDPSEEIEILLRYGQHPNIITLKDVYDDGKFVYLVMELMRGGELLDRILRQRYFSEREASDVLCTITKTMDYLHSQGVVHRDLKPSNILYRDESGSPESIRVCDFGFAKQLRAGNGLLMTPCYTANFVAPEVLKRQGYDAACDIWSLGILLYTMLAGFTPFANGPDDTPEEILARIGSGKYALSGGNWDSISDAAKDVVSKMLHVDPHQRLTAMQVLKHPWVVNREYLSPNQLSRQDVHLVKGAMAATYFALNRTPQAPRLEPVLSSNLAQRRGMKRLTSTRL

PTK2B (human) = PTK2B (human) (UniProt Q14289)
CDK3 (human) = CDK3 (human) (UniProt Q00526)
Chain of CDK3 (human) (Q00526 whole entry, looked up): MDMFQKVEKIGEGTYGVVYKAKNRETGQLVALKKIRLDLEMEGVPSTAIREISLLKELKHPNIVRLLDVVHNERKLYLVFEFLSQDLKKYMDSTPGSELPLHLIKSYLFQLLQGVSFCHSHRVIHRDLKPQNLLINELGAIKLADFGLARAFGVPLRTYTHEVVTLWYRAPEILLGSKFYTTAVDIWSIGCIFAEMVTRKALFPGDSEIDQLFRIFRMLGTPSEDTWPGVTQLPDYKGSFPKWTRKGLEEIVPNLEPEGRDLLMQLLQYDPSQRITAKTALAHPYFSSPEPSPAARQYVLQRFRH

NEK9 (human) = NEK9 (human) (UniProt Q8TD19)
CAMK2G (human) = CAMK2G (human) (UniProt Q13555)
Chain of CAMK2G (human) (Q13555 whole entry, looked up): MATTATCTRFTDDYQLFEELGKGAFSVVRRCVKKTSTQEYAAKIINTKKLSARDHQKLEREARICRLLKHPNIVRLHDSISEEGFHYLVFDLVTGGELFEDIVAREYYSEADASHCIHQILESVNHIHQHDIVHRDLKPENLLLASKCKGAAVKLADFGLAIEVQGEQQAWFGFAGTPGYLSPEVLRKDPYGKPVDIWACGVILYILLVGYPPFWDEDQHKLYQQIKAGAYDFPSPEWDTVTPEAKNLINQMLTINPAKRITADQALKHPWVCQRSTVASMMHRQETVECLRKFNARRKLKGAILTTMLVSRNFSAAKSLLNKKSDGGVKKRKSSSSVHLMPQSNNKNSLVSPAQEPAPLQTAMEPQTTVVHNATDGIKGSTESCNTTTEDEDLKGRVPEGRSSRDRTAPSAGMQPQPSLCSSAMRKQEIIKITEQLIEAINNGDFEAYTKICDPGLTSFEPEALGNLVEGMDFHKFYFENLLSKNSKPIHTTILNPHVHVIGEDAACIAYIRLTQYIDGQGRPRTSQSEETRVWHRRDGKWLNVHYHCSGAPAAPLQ

RPS6KA6 KD2 (human) = RPS6KA6 KD2 (human) (UniProt Q9UK32)
ABL1 (human) = ABL1 (human) (UniProt P00519)
TEC (human) = TEC (human) (UniProt P42680)
Chain of TEC (human) (P42680 whole entry, looked up): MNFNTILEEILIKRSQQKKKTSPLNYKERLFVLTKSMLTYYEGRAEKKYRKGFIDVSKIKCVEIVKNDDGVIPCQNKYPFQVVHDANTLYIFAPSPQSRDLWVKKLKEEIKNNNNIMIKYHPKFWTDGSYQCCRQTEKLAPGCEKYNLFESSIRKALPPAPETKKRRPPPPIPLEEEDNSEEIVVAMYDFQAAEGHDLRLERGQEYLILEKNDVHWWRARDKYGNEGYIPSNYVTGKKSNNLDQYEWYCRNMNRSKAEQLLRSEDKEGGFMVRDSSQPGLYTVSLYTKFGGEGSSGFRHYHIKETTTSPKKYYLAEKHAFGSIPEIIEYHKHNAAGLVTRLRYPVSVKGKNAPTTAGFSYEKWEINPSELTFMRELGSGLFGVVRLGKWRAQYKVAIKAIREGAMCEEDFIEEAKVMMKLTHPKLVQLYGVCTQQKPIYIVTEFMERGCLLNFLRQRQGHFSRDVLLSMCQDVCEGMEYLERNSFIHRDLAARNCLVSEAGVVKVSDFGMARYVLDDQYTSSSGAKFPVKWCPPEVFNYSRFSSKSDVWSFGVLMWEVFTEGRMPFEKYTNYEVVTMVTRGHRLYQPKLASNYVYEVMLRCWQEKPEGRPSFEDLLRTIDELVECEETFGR

PHKG1 (human) = PHKG1 (human) (UniProt Q16816)
PIP4K2B (human) = PIP4K2B (human) (UniProt P78356)
LATS1 (human) = LATS1 (human) (UniProt O95835)
SLK (human) = SLK (human) (UniProt Q9H2G2)
TSSK1B (human) = TSSK1B (human) (UniProt Q9BXA7)
ULK2 (human) = ULK2 (human) (UniProt Q8IYT8)
CSNK1A1 (human) = CSNK1A1 (human) (UniProt P48729)
[3] = test system: EGFR (human), P00533 [T790M]
MAP2K5 (human) = MAP2K5 (human) (UniProt Q13163)
CDK4 CCND3 (human) = CDK4 CCND3 (human) (UniProt P11802+P30281)
CPK1 (P.falciparum) = test system: CPK1 (P.falciparum)
MST1R (human) = MST1R (human) (UniProt Q04912)

Chain of RIOK1 (human) (Q9BRS2 whole entry, looked up): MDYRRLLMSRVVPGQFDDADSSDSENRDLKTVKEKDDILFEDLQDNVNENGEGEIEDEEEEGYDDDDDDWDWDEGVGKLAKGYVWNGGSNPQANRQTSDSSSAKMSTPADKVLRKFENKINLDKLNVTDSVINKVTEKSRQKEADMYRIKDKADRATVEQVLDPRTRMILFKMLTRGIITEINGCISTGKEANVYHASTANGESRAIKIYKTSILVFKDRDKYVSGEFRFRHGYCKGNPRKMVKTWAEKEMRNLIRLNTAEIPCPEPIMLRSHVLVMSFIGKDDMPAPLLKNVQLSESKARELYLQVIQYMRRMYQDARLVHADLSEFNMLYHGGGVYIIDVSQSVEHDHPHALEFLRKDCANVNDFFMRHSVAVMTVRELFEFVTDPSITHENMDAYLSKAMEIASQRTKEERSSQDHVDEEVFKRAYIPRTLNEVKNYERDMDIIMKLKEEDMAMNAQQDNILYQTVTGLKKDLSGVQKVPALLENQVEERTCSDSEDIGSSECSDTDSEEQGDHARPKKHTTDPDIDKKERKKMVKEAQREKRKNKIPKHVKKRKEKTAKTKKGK
Chain of MAPK6 (human) (Q16659 whole entry, looked up): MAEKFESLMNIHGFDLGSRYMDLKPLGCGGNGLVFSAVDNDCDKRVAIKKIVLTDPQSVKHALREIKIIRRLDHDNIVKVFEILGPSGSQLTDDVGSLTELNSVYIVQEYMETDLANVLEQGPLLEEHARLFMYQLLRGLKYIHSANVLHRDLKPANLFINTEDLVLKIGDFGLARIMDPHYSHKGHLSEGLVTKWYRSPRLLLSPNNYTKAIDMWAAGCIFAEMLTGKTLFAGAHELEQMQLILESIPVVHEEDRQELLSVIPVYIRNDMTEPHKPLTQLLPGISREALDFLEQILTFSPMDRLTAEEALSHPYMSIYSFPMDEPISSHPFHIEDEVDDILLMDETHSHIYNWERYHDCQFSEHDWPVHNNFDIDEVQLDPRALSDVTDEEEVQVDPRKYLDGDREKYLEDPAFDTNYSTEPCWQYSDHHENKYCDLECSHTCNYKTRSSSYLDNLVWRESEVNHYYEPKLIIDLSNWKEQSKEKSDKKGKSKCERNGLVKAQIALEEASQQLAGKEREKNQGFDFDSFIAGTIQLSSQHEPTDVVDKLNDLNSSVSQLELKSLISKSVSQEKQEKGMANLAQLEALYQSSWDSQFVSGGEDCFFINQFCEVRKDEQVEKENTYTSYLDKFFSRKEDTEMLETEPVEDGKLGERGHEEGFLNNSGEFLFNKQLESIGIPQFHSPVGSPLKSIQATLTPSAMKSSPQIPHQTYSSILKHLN
Chain of MAP2K6 (human) (P52564 whole entry, looked up): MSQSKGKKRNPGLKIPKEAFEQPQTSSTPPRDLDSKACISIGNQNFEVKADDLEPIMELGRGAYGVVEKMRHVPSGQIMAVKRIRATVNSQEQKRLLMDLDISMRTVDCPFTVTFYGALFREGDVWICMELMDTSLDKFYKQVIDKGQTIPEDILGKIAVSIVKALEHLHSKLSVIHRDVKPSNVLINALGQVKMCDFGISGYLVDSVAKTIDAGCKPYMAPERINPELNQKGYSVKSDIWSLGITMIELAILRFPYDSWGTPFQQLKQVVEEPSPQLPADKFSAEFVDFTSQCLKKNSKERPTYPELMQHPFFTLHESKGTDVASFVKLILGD

SMILES	kinase still bound, per cent of control (RIOK1 (human)) [%]	kinase still bound, per cent of control (AURKA (human)) [%]	kinase still bound, per cent of control (MAP2K6 (human)) [%]	kinase still bound, per cent of control (CDK2 (human)) [%]	kinase still bound, per cent of control (MAP3K12 (human)) [%]	kinase still bound, per cent of control (MAPK6 (human)) [%]	kinase still bound, per cent of control (YES1 (human)) [%]	kinase still bound, per cent of control (CIT (human)) [%]	kinase still bound, per cent of control (PHKG2 (human)) [%]	kinase still bound, per cent of control (RPS6KA6 KD1 (human)) [%]	kinase still bound, per cent of control (ACVRL1 (human)) [%]	kinase still bound, per cent of control (EIF2AK2 (human)) [%]	kinase still bound, per cent of control (MKNK1 (human)) [%]	kinase still bound, per cent of control [2] [%]	kinase still bound, per cent of control (RPS6KA4 KD2 (human)) [%]	kinase still bound, per cent of control (RPS6KA2 KD2 (human)) [%]	kinase still bound, per cent of control (PTK2B (human)) [%]	kinase still bound, per cent of control (CDK3 (human)) [%]	kinase still bound, per cent of control (NEK9 (human)) [%]	kinase still bound, per cent of control (CAMK2G (human)) [%]	further results
CCN(CC)CCCCNc1ncc2cc(-c3cc(OC)cc(OC)c3)c(NC(=O)NC(C)(C)C)nc2n1	100	100	100	100	100	100	100	100	100	100	100	24	100	100	100	100	100	100	100	100	kinase still bound, per cent of control [1]: 100%; kinase still bound, per cent of control (RPS6KA6 KD2 (human)): 100%; kinase still bound, per cent of control (ABL1 (human)): 100%; kinase still bound, per cent of control (TEC (human)): 100%; kinase still bound, per cent of control (PHKG1 (human)): 100%; kinase still bound, per cent of control (PIP4K2B (human)): 100%; kinase still bound, per cent of control (LATS1 (human)): 100%; kinase still bound, per cent of control (SLK (human)): 100%; kinase still bound, per cent of control (TSSK1B (human)): 100%
CN(C)C/C=C/C(=O)Nc1ccc(C(=O)Nc2cccc(Nc3nccc(-c4cccnc4)n3)c2)cc1	10	11	47	100	74	7.4	100	38	56	51	97	50	42	15	80	100	100	96	22	76	kinase still bound, per cent of control (ULK2 (human)): 99%; kinase still bound, per cent of control (CSNK1A1 (human)): 27%; kinase still bound, per cent of control [3]: 65%; kinase still bound, per cent of control (MAP2K5 (human)): 41%; kinase still bound, per cent of control (CDK4 CCND3 (human)): 100%; kinase still bound, per cent of control (RPS6KA6 KD2 (human)): 97%; kinase still bound, per cent of control (TEC (human)): 100%; kinase still bound, per cent of control (CPK1 (P.falciparum)): 100%; kinase still bound, per cent of control (PHKG1 (human)): 96%; kinase still bound, per cent of control (PIP4K2B (human)): 56%; kinase still bound, per cent of control (LATS1 (human)): 100%; kinase still bound, per cent of control (SLK (human)): 98%; kinase still bound, per cent of control (TSSK1B (human)): 100%; kinase still bound, per cent of control (MST1R (human)): 100%
NC(=O)Nc1cc(-c2cccc(F)c2)sc1C(=O)N[C@@H]1CCCNC1	0.4	22	3.8	93	9.7	54	0.2	0.2	1.6	0.3	76	3.4	6	0	0.35	1.9	0.6	100	80	24	kinase still bound, per cent of control (ULK2 (human)): 0%; kinase still bound, per cent of control (CSNK1A1 (human)): 0.5%; kinase still bound, per cent of control [3]: 0.05%; kinase still bound, per cent of control (MAP2K5 (human)): 0.05%; kinase still bound, per cent of control (CDK4 CCND3 (human)): 92%; kinase still bound, per cent of control (RPS6KA6 KD2 (human)): 1.2%; kinase still bound, per cent of control (TEC (human)): 0.4%; kinase still bound, per cent of control (CPK1 (P.falciparum)): 0.1%; kinase still bound, per cent of control (PHKG1 (human)): 0.1%; kinase still bound, per cent of control (PIP4K2B (human)): 0.2%; kinase still bound, per cent of control (LATS1 (human)): 11%; kinase still bound, per cent of control (SLK (human)): 0.05%; kinase still bound, per cent of control (TSSK1B (human)): 2.6%; kinase still bound, per cent of control (MST1R (human)): 12%
